Assay results taken from PubChem BioAssay AID248 (DTP/NCI, 2004).
“And” between values parts separate entries of the source, which are not always exact repeats. Identical values can stand only once. Toxic doses and inconclusive results are not listed. Rule as the data show it: active = T/C of 150% or more; inactive = T/C below 125%.

System: L1210 leukemia ip in BDF1 mice, survival T/C
Assay: NCI In Vivo Anticancer Drug Screen. Data for tumor model L1210 Leukemia (intraperitoneal) in B6D2F1 (BDF1) mice
Conditions: endpoint: mean survival time, higher = longer survival
Method in brief: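 Mice bearing the transplanted tumor received compound or vehicle. Survival of the treated group was divided by that of the vehicle-treated control group to give the ratio.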

[1] = dose: 100.0 mg/kg/injection, schedule: Q01DX001 (ip), vehicle: saline
[2] = dose: 200.0 mg/kg/injection, schedule: Q01DX001 (ip), vehicle: saline
[3] = dose: 400.0 mg/kg/injection, schedule: Q01DX001 (ip), vehicle: saline
[4] = dose: 100.0 mg/kg/injection, schedule: Q01DX009 (ip), vehicle: saline with Tween-80
[5] = dose: 200.0 mg/kg/injection, schedule: Q01DX009 (ip), vehicle: saline with Tween-80
[6] = dose: 400.0 mg/kg/injection, schedule: Q01DX009 (ip), vehicle: saline with Tween-80
[7] = dose: 100.0 mg/kg/injection, schedule: Q01DX001 (ip), vehicle: carboxymethylcellulose (CMC)
[8] = dose: 200.0 mg/kg/injection, schedule: Q01DX001 (ip), vehicle: carboxymethylcellulose (CMC)
[9] = dose: 400.0 mg/kg/injection, schedule: Q01DX001 (ip), vehicle: carboxymethylcellulose (CMC)
[10] = dose: 100.0 mg/kg/injection, schedule: Q01DX009 (ip), vehicle: saline
[11] = dose: 200.0 mg/kg/injection, schedule: Q01DX009 (ip), vehicle: saline
[12] = dose: 100.0 mg/kg/injection, schedule: Q04DX003 (ip), vehicle: acetone
[13] = dose: 100.0 mg/kg/injection, schedule: Q01DX009 (ip), vehicle: Klucel (hydroxypropylcellulose) (HPC)
[14] = dose: 200.0 mg/kg/injection, schedule: Q01DX009 (ip), vehicle: Klucel (hydroxypropylcellulose) (HPC)

Measured: T/C

CC1OC(OC2C(CO)OC(O[C@H]3CC[C@@]4(C)C(=CC[C@H]5[C@@H]6C[C@@H]7O[C@@]8(CC[C@H](C)CN8)[C@@H](C)[C@@H]7[C@@]6(C)CC[C@@H]54)C3)C(OC3OC(C)C(O)C(O)C3O)C2O)C(O)C(O)C1O (stereo partly specified)
inactive: dose: 10.0 mg/kg/injection, schedule: Q01DX009 (ip), vehicle: saline 115 % of control | dose: 20.0 mg/kg/injection, schedule: Q01DX009 (ip), vehicle: saline 103 % of control | dose: 40.0 mg/kg/injection, schedule: Q01DX009 (ip), vehicle: saline 100 % of control | dose: 80.0 mg/kg/injection, schedule: Q01DX009 (ip), vehicle: saline 103 % of control

O=C1C(OCc2ccccc2)=C(OCc2ccccc2)C(=O)c2ccccc21
inactive: dose: 75.0 mg/kg/injection, schedule: Q01DX001 (ip), vehicle: acetone 91 % of control | dose: 150.0 mg/kg/injection, schedule: Q01DX001 (ip), vehicle: acetone 94 % of control | dose: 300.0 mg/kg/injection, schedule: Q01DX001 (ip), vehicle: acetone 90 % of control

C=CC[N+](C)([O-])c1ccc(C(=O)OC)cc1 (stereo unspecified)
inactive: [1] 107 % of control | [2] 102 % of control | [3] 96 % of control

O=C1OC(c2cccc(Cl)c2)=N/C1=C\c1ccc(Cl)cc1
inactive: dose: 100.0 mg/kg/injection, schedule: Q04DX002 (ip), vehicle: Klucel (hydroxypropylcellulose) (HPC) 100 % of control | dose: 200.0 mg/kg/injection, schedule: Q04DX002 (ip), vehicle: Klucel (hydroxypropylcellulose) (HPC) 92 % of control | dose: 400.0 mg/kg/injection, schedule: Q04DX002 (ip), vehicle: Klucel (hydroxypropylcellulose) (HPC) 92 % of control

C/C=C/C(=O)Nc1cccc(O)c1
inactive: [4] 93 % of control | [5] 91 % of control | [6] 93 % of control

CCCn1c(=O)cc(C)c2ccccc21
inactive: dose: 100.0 mg/kg/injection, schedule: Q01DX001 (ip), vehicle: other 105 % of control | dose: 200.0 mg/kg/injection, schedule: Q01DX001 (ip), vehicle: other 90 % of control | dose: 400.0 mg/kg/injection, schedule: Q01DX001 (ip), vehicle: other 91 % of control

CCOC(=O)/C(C#N)=C\C1(C)CCC(C)=CO1 (stereo unspecified)
inactive: [4] 96 % of control | dose: 100.0 mg/kg/injection, schedule: Q04DX002 (ip), vehicle: saline with Tween-80 92 % of control | [5] 110 % of control | dose: 200.0 mg/kg/injection, schedule: Q04DX002 (ip), vehicle: saline with Tween-80 115 % of control | [6] 100 % of control | dose: 400.0 mg/kg/injection, schedule: Q04DX002 (ip), vehicle: saline with Tween-80 96 % of control

O=c1ccc2cc(Br)ccc2o1
inactive: dose: 100.0 mg/kg/injection, schedule: Q04DX003 (ip), vehicle: Klucel (hydroxypropylcellulose) (HPC) 97 % of control | dose: 200.0 mg/kg/injection, schedule: Q04DX003 (ip), vehicle: Klucel (hydroxypropylcellulose) (HPC) 95 % of control | dose: 400.0 mg/kg/injection, schedule: Q04DX003 (ip), vehicle: Klucel (hydroxypropylcellulose) (HPC) 97 % of control

CCOC(=O)CNC(=O)Oc1cc(C)c(Cl)cc1C
inactive: [7] 100 % of control and 110 % of control | dose: 100.0 mg/kg/injection, schedule: Q01DX009 (ip), vehicle: carboxymethylcellulose (CMC) 89 % of control | dose: 100.0 mg/kg/injection, schedule: Q04DX002 (ip), vehicle: carboxymethylcellulose (CMC) 93 % of control and 96 % of control | dose: 100.0 mg/kg/injection, schedule: Q04DX003 (ip), vehicle: carboxymethylcellulose (CMC) 101 % of control and 90 % of control | [8] 106 % of control and 109 % of control | dose: 200.0 mg/kg/injection, schedule: Q01DX009 (ip), vehicle: carboxymethylcellulose (CMC) 95 % of control | dose: 200.0 mg/kg/injection, schedule: Q04DX002 (ip), vehicle: carboxymethylcellulose (CMC) 98 % of control and 99 % of control | dose: 200.0 mg/kg/injection, schedule: Q04DX003 (ip), vehicle: carboxymethylcellulose (CMC) 94 % of control and 103 % of control | [9] 102 % of control and 103 % of control | dose: 400.0 mg/kg/injection, schedule: Q01DX009 (ip), vehicle: carboxymethylcellulose (CMC) 100 % of control | dose: 400.0 mg/kg/injection, schedule: Q04DX002 (ip), vehicle: carboxymethylcellulose (CMC) 95 % of control and 99 % of control | dose: 400.0 mg/kg/injection, schedule: Q04DX003 (ip), vehicle: carboxymethylcellulose (CMC) 97 % of control and 87 % of control

CC(=O)NC1=C(S(=O)(=O)O)c2ccccc2C1
inactive: [1] 105 % of control | [10] 98 % of control | dose: 100.0 mg/kg/injection, schedule: Q04DX002 (ip), vehicle: saline 94 % of control and 110 % of control and 118 % of control | dose: 100.0 mg/kg/injection, schedule: Q04DX003 (ip), vehicle: saline 104 % of control | [2] 115 % of control | [11] 98 % of control and 104 % of control | dose: 200.0 mg/kg/injection, schedule: Q04DX002 (ip), vehicle: saline 94 % of control and 103 % of control | dose: 200.0 mg/kg/injection, schedule: Q04DX003 (ip), vehicle: saline 96 % of control | [3] 108 % of control | dose: 400.0 mg/kg/injection, schedule: Q01DX009 (ip), vehicle: saline 105 % of control and 106 % of control | dose: 400.0 mg/kg/injection, schedule: Q04DX002 (ip), vehicle: saline 102 % of control and 109 % of control and 88 % of control | dose: 400.0 mg/kg/injection, schedule: Q04DX003 (ip), vehicle: saline 102 % of control

C=COC(=O)N(C)C
inactive: dose: 50.0 mg/kg/injection, schedule: Q01DX009 (ip), vehicle: saline 89 % of control | dose: 50.0 mg/kg/injection, schedule: Q04DX003 (ip), vehicle: acetone 98 % of control | [1] 96 % of control | [10] 94 % of control | [12] 96 % of control | [2] 107 % of control | [11] 95 % of control | dose: 200.0 mg/kg/injection, schedule: Q04DX003 (ip), vehicle: acetone 95 % of control

COc1ccc2c(c1C)CCC1(C(=O)O)CC(C)C(O)CC21 (stereo unspecified)
inactive: dose: 100.0 mg/kg/injection, schedule: Q01DX009 (ip), vehicle: saline sonified 98 % of control | dose: 200.0 mg/kg/injection, schedule: Q01DX009 (ip), vehicle: saline sonified 96 % of control | dose: 400.0 mg/kg/injection, schedule: Q01DX009 (ip), vehicle: saline sonified 96 % of control

O=C(O)c1cccc(Cl)c1
inactive: [13] 100 % of control | [14] 100 % of control | dose: 400.0 mg/kg/injection, schedule: Q01DX009 (ip), vehicle: Klucel (hydroxypropylcellulose) (HPC) 86 % of control

CC(C)N1CCC1C (stereo unspecified)
inactive: [12] 96 % of control

COc1c(C)ccc([N+](=O)[O-])c1OC
inactive: dose: 100.0 mg/kg/injection, schedule: Q04DX003 (ip), vehicle: saline with Tween-80 94 % of control | dose: 200.0 mg/kg/injection, schedule: Q04DX003 (ip), vehicle: saline with Tween-80 97 % of control | dose: 400.0 mg/kg/injection, schedule: Q04DX003 (ip), vehicle: saline with Tween-80 97 % of control

O=C(O)CCNC(=O)CNC(=O)OCc1ccccc1
inactive: [13] 98 % of control | [14] 100 % of control | dose: 300.0 mg/kg/injection, schedule: Q01DX009 (ip), vehicle: Klucel (hydroxypropylcellulose) (HPC) 98 % of control

CCOC1CCN(CCCn2c3ccccc3c3ccc(C(C)=O)cc32)CC1
inactive: [1] 95 % of control | [2] 92 % of control

CC(C)(CO)NCc1ccc(O)cc1
inactive: [7] 96 % of control | [8] 100 % of control | [9] 96 % of control

CC(C)=CCc1cccc(C)c1
inactive: dose: 50.0 mg/kg/injection, schedule: Q01DX009 (ip), vehicle: saline with Tween-80 94 % of control | [4] 98 % of control | [5] 105 % of control
